Species on record: Rattus norvegicus
Test: Open TG-GATES - Regimen: Single
Format: toxicity, organism-based, Sprague-Dawley
Set-up: regimen Single, gender Male, age 6 weeks
Settings: in vivo, po, route gavage; for APTT / Bas / Eos / Fbg / Hb / Ht / Lym / MCH / MCHC / MCV / Mono / Neu / PT / Plat / RBC / Ret / WBC: tissue Blood; for KIDNEY_L / KIDNEY_R / KIDNEY_TOTAL: tissue Kidney; for LIVER: tissue Liver; for A/G / ALP / ALT / AST / BUN / CRE / Ca / Cl / DBIL / GLC / IP / K / LDH / Na / PL / RALB / TBIL / TC / TG / TP / gamma-GTP: tissue Plasma
[1] = 300 mg/kg, 3 h, dose level Middle
[2] = 300 mg/kg, 6 h, dose level Middle
[3] = 300 mg/kg, 9 h, dose level Middle
[4] = 300 mg/kg, 24 h, dose level Middle
[5] = 1000 mg/kg, 3 h, dose level High
[6] = 1000 mg/kg, 6 h, dose level High
[7] = 1000 mg/kg, 9 h, dose level High
[8] = 1000 mg/kg, 24 h, dose level High

COc1ccc(Cl)cc1C(=O)NCCc1ccc(S(=O)(=O)NC(=O)NC2CCCCC2)cc1 [GLYBURIDE]
TERMINAL_BW [1]: 217.4 g
APTT [1]: 18.5 s
Bas [1]: 0%
Eos [1]: 1%
Fbg [1]: 239 mg/dL
Hb [1]: 13.3 g/dL
Ht [1]: 40.4%
Lym [1]: 72%
MCH [1]: 20.3 pg
MCHC [1]: 32.9%
MCV [1]: 61.7 fL
Mono [1]: 2.6%
Neu [1]: 23.8%
PT [1]: 12.6 s
Plat [1]: 139.4 x10_4/uL
RBC [1]: 655.2 x10_4/ul
Ret [1]: 8.6%
WBC [1]: 79 x10_2/uL
KIDNEY_L [1]: 1 g
KIDNEY_R [1]: 1 g
KIDNEY_TOTAL [1]: 1.9 g
LIVER [1]: 9.7 g
A/G [1]: 1.5
ALP [1]: 1040 IU/L
ALT [1]: 46.4 IU/L
AST [1]: 70.8 IU/L
BUN [1]: 12.2 mg/dL
CRE [1]: 0.3 mg/dL
Ca [1]: 10.8 mg/dL
Cl [1]: 103.6 meq/L
DBIL [1]: 0.1 mg/dL
GLC [1]: 136.4 mg/dL
IP [1]: 8.7 mg/dL
K [1]: 3.7 meq/L
LDH [1]: 143.8 IU/L
Na [1]: 141.2 meq/L
PL [1]: 165.8 mg/dL
RALB [1]: 3.5 g/dL
TBIL [1]: 0.2 mg/dL
TC [1]: 82.4 mg/dL
TG [1]: 88 mg/dL
TP [1]: 5.7 g/dL
gamma-GTP [1]: 1 IU/L
TERMINAL_BW [2]: 216.4 g
APTT [2]: 18.7 s
Bas [2]: 0%
Eos [2]: 0.8%
Fbg [2]: 215.8 mg/dL
Hb [2]: 13.4 g/dL
Ht [2]: 41%
Lym [2]: 74.4%
MCH [2]: 20.7 pg
MCHC [2]: 32.6%
MCV [2]: 63.6 fL
Mono [2]: 3%
Neu [2]: 21%
PT [2]: 12.9 s
Plat [2]: 123.3 x10_4/uL
RBC [2]: 645.6 x10_4/ul
Ret [2]: 8.3%
WBC [2]: 114.4 x10_2/uL
KIDNEY_L [2]: 1 g
KIDNEY_R [2]: 0.9 g
KIDNEY_TOTAL [2]: 1.9 g
LIVER [2]: 9.6 g
A/G [2]: 1.6
ALP [2]: 903.6 IU/L
ALT [2]: 33.6 IU/L
AST [2]: 62.2 IU/L
BUN [2]: 11.8 mg/dL
CRE [2]: 0.3 mg/dL
Ca [2]: 10.8 mg/dL
Cl [2]: 103.6 meq/L
DBIL [2]: 0.1 mg/dL
GLC [2]: 161.4 mg/dL
IP [2]: 9 mg/dL
K [2]: 3.8 meq/L
LDH [2]: 134.8 IU/L
Na [2]: 140.8 meq/L
PL [2]: 139.2 mg/dL
RALB [2]: 3.4 g/dL
TBIL [2]: 0.2 mg/dL
TC [2]: 72.4 mg/dL
TG [2]: 69.4 mg/dL
TP [2]: 5.7 g/dL
gamma-GTP [2]: 0.8 IU/L
TERMINAL_BW [3]: 213.5 g
APTT [3]: 19.3 s
Bas [3]: 0%
Eos [3]: 1%
Fbg [3]: 234.8 mg/dL
Hb [3]: 13.4 g/dL
Ht [3]: 41%
Lym [3]: 67.8%
MCH [3]: 20.7 pg
MCHC [3]: 32.8%
MCV [3]: 63.2 fL
Mono [3]: 3%
Neu [3]: 27.4%
PT [3]: 12.6 s
Plat [3]: 119.4 x10_4/uL
RBC [3]: 648.6 x10_4/ul
Ret [3]: 7.9%
WBC [3]: 119.6 x10_2/uL
KIDNEY_L [3]: 0.9 g
KIDNEY_R [3]: 1 g
KIDNEY_TOTAL [3]: 1.9 g
LIVER [3]: 9.4 g
A/G [3]: 1.5
ALP [3]: 926.6 IU/L
ALT [3]: 35.8 IU/L
AST [3]: 65.2 IU/L
BUN [3]: 12.2 mg/dL
CRE [3]: 0.3 mg/dL
Ca [3]: 10.6 mg/dL
Cl [3]: 102.8 meq/L
DBIL [3]: 0.086 mg/dL
GLC [3]: 148.4 mg/dL
IP [3]: 10.2 mg/dL
K [3]: 3.6 meq/L
LDH [3]: 133.6 IU/L
Na [3]: 141.6 meq/L
PL [3]: 149.2 mg/dL
RALB [3]: 3.5 g/dL
TBIL [3]: 0.1 mg/dL
TC [3]: 76.2 mg/dL
TG [3]: 58.6 mg/dL
TP [3]: 5.8 g/dL
gamma-GTP [3]: 1.8 IU/L
TERMINAL_BW [4]: 225 g
APTT [4]: 18.1 s
Bas [4]: 0.2%
Eos [4]: 1%
Fbg [4]: 220.2 mg/dL
Hb [4]: 12.9 g/dL
Ht [4]: 37.9%
Lym [4]: 82.6%
MCH [4]: 21.5 pg
MCHC [4]: 33.9%
MCV [4]: 63.5 fL
Mono [4]: 1.8%
Neu [4]: 14%
PT [4]: 12.5 s
Plat [4]: 119.5 x10_4/uL
RBC [4]: 597.4 x10_4/ul
Ret [4]: 6.6%
WBC [4]: 91.9 x10_2/uL
KIDNEY_L [4]: 1 g
KIDNEY_R [4]: 1 g
KIDNEY_TOTAL [4]: 2 g
LIVER [4]: 10.4 g
A/G [4]: 1.7
ALP [4]: 931.4 IU/L
ALT [4]: 36.2 IU/L
AST [4]: 65 IU/L
BUN [4]: 15.8 mg/dL
CRE [4]: 0.4 mg/dL
Ca [4]: 10.7 mg/dL
Cl [4]: 102.4 meq/L
DBIL [4]: 0.088 mg/dL
GLC [4]: 202 mg/dL
IP [4]: 8.3 mg/dL
K [4]: 3.5 meq/L
LDH [4]: 182.2 IU/L
Na [4]: 141.8 meq/L
PL [4]: 144.4 mg/dL
RALB [4]: 3.4 g/dL
TBIL [4]: 0.1 mg/dL
TC [4]: 79 mg/dL
TG [4]: 62.6 mg/dL
TP [4]: 5.4 g/dL
gamma-GTP [4]: 1.4 IU/L
TERMINAL_BW [5]: 216.5 g
APTT [5]: 18.9 s
Bas [5]: 0%
Eos [5]: 1%
Fbg [5]: 226.2 mg/dL
Hb [5]: 13.2 g/dL
Ht [5]: 40.8%
Lym [5]: 69.2%
MCH [5]: 20.3 pg
MCHC [5]: 32.5%
MCV [5]: 62.6 fL
Mono [5]: 4%
Neu [5]: 25%
PT [5]: 12.6 s
Plat [5]: 118.1 x10_4/uL
RBC [5]: 651.8 x10_4/ul
Ret [5]: 7.9%
WBC [5]: 75.5 x10_2/uL
KIDNEY_L [5]: 0.9 g
KIDNEY_R [5]: 1 g
KIDNEY_TOTAL [5]: 1.9 g
LIVER [5]: 9.5 g
A/G [5]: 1.6
ALP [5]: 1086.8 IU/L
ALT [5]: 43.2 IU/L
AST [5]: 67.2 IU/L
BUN [5]: 13.2 mg/dL
CRE [5]: 0.3 mg/dL
Ca [5]: 10.7 mg/dL
Cl [5]: 104.4 meq/L
DBIL [5]: 0.2 mg/dL
GLC [5]: 125.4 mg/dL
IP [5]: 7.8 mg/dL
K [5]: 3.7 meq/L
LDH [5]: 172.8 IU/L
Na [5]: 141.8 meq/L
PL [5]: 178.6 mg/dL
RALB [5]: 3.4 g/dL
TBIL [5]: 0.2 mg/dL
TC [5]: 85.2 mg/dL
TG [5]: 123 mg/dL
TP [5]: 5.5 g/dL
gamma-GTP [5]: 1.8 IU/L
TERMINAL_BW [6]: 217.2 g
APTT [6]: 19.4 s
Bas [6]: 0%
Eos [6]: 0.8%
Fbg [6]: 240.8 mg/dL
Hb [6]: 13.6 g/dL
Ht [6]: 41.3%
Lym [6]: 79.4%
MCH [6]: 20.7 pg
MCHC [6]: 32.9%
MCV [6]: 62.9 fL
Mono [6]: 2.8%
Neu [6]: 16.2%
PT [6]: 12.6 s
Plat [6]: 128.9 x10_4/uL
RBC [6]: 657 x10_4/ul
Ret [6]: 8.2%
WBC [6]: 91.7 x10_2/uL
KIDNEY_L [6]: 1 g
KIDNEY_R [6]: 1 g
KIDNEY_TOTAL [6]: 1.9 g
LIVER [6]: 9.7 g
A/G [6]: 1.6
ALP [6]: 948.2 IU/L
ALT [6]: 38.4 IU/L
AST [6]: 65.4 IU/L
BUN [6]: 12.4 mg/dL
CRE [6]: 0.4 mg/dL
Ca [6]: 10.6 mg/dL
Cl [6]: 104.2 meq/L
DBIL [6]: 0.1 mg/dL
GLC [6]: 155.8 mg/dL
IP [6]: 8.7 mg/dL
K [6]: 3.6 meq/L
LDH [6]: 169.2 IU/L
Na [6]: 141.8 meq/L
PL [6]: 154 mg/dL
RALB [6]: 3.5 g/dL
TBIL [6]: 0.2 mg/dL
TC [6]: 82.4 mg/dL
TG [6]: 86.4 mg/dL
TP [6]: 5.7 g/dL
gamma-GTP [6]: 1.6 IU/L
TERMINAL_BW [7]: 211.6 g
APTT [7]: 18.9 s
Bas [7]: 0%
Eos [7]: 1%
Fbg [7]: 228 mg/dL
Hb [7]: 13.3 g/dL
Ht [7]: 40.7%
Lym [7]: 76%
MCH [7]: 20.4 pg
MCHC [7]: 32.6%
MCV [7]: 62.5 fL
Mono [7]: 2.8%
Neu [7]: 19.6%
PT [7]: 12.9 s
Plat [7]: 115.6 x10_4/uL
RBC [7]: 651.2 x10_4/ul
Ret [7]: 7.8%
WBC [7]: 83.2 x10_2/uL
KIDNEY_L [7]: 0.9 g
KIDNEY_R [7]: 0.9 g
KIDNEY_TOTAL [7]: 1.8 g
LIVER [7]: 8.7 g
A/G [7]: 1.7
ALP [7]: 1050.6 IU/L
ALT [7]: 35.4 IU/L
AST [7]: 65.2 IU/L
BUN [7]: 12.8 mg/dL
CRE [7]: 0.4 mg/dL
Ca [7]: 10.7 mg/dL
Cl [7]: 103.8 meq/L
DBIL [7]: 0.1 mg/dL
GLC [7]: 139 mg/dL
IP [7]: 9.5 mg/dL
K [7]: 3.5 meq/L
LDH [7]: 168.2 IU/L
Na [7]: 142.2 meq/L
PL [7]: 141 mg/dL
RALB [7]: 3.5 g/dL
TBIL [7]: 0.2 mg/dL
TC [7]: 70.8 mg/dL
TG [7]: 64.2 mg/dL
TP [7]: 5.7 g/dL
gamma-GTP [7]: 0.6 IU/L
TERMINAL_BW [8]: 226 g
APTT [8]: 18.8 s
Bas [8]: 0.2%
Eos [8]: 1%
Fbg [8]: 215.2 mg/dL
Hb [8]: 13 g/dL
Ht [8]: 38.3%
Lym [8]: 77.2%
MCH [8]: 21.6 pg
MCHC [8]: 33.9%
MCV [8]: 63.9 fL
Mono [8]: 2.8%
Neu [8]: 18.6%
PT [8]: 12.8 s
Plat [8]: 126.5 x10_4/uL
RBC [8]: 600.8 x10_4/ul
Ret [8]: 6.8%
WBC [8]: 87.8 x10_2/uL
KIDNEY_L [8]: 1 g
KIDNEY_R [8]: 1 g
KIDNEY_TOTAL [8]: 1.9 g
LIVER [8]: 10.1 g
A/G [8]: 1.7
ALP [8]: 923.4 IU/L
ALT [8]: 35.6 IU/L
AST [8]: 69.2 IU/L
BUN [8]: 16.2 mg/dL
CRE [8]: 0.3 mg/dL
Ca [8]: 10.7 mg/dL
Cl [8]: 103.4 meq/L
DBIL [8]: 0.1 mg/dL
GLC [8]: 195 mg/dL
IP [8]: 7.7 mg/dL
K [8]: 3.4 meq/L
LDH [8]: 218.2 IU/L
Na [8]: 142.6 meq/L
PL [8]: 143.6 mg/dL
RALB [8]: 3.5 g/dL
TBIL [8]: 0.2 mg/dL
TC [8]: 75.4 mg/dL
TG [8]: 74 mg/dL
TP [8]: 5.5 g/dL
gamma-GTP [8]: 1.4 IU/L

From ChEMBL document CHEMBL3885861, “Open TG-GATES”
